From US20240252677A1, “ONE-COMPONENT DELIVERY SYSTEM FOR NUCLEIC ACIDS” (The Trustees of the University of Pennsylvania, priority 2021, published 2024)

Key:
[1] = Dimensions (size, PDI) of DNPs co-assembled from IAJDs and Luc-mRNA by DLS; type: physicochemical
Method in brief: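 IAJDs (80 mg/mL ethanol stock) rapidly injected into Luc-mRNA (4.0 mg/mL stock) diluted in 10 mM acetate buffer pH 4.0, then vortexed 5 s. Size and polydispersity of resulting DNPs measured by DLS (633 nm laser, 175° detection) at 23 °C.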

[2] = tested on: spleen; assay: In vivo mRNA delivery, IVIS imaging of organs: spleen; design: species or system mice; key to Organs with luminescence: spleen: strong: Strong meant the luminescence intensity in that organ was relatively high, compared to other organs; weak: Weak meant the luminescence intensity in that organ was relatively low, compared to other organs; conditions: for Organs with luminescence: spleen: Table 17, mice, IVIS, 4-6 h after injection, intensity relative to other organs; for Organs with luminescence: spleen (weak/strong): Table 14
[3] = tested on: lung; assay: In vivo mRNA delivery, IVIS imaging of organs: lung; design: species or system mice; key to Organs with luminescence: lung: strong: Strong meant the luminescence intensity in that organ was relatively high, compared to other organs; weak: Weak meant the luminescence intensity in that organ was relatively low, compared to other organs; conditions: for Organs with luminescence: lung: Table 17, mice, IVIS, 4-6 h after injection, intensity relative to other organs; for Organs with luminescence: lung (weak/strong): Table 14
[4] = pKa measurements of individual IAJD molecules by titration; type: physicochemical; conditions: ethanol saturated with NaCl, titrated with 0.1 M aqueous HCl, titration
Method in brief: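 Compound dissolved at 1.5 mg/mL in NaCl-saturated ethanol and titrated with 0.1 M HCl in 7.5 μL steps, pH read by electrode after each addition. pKa taken from the half-equivalence point.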

[5] = Table 16, DNPs from IAJD 4 mg/mL and Luc-mRNA 0.10 mg/mL by injection in acetate buffer (10 mM, pH 4.0)
[6] = Table 17, DNPs used in vivo, IAJD 4 mg/mL, Luc-mRNA 0.10 mg/mL, acetate pH 4.0
[7] = Table 12, DNPs, IAJD 4 mg/mL + Luc-mRNA 0.10 mg/mL, acetate buffer 10 mM pH 4.0
[8] = Table 13, DNPs, IAJD 4 mg/mL + Luc-mRNA 0.10 mg/mL, acetate buffer pH 4.0
[9] = Table 14, DNPs, IAJD 4 mg/mL + Luc-mRNA 0.10 mg/mL, acetate buffer pH 4.0
[10] = Table 15, individual IAJD molecule

SMILES	PDI [1, 5]	Size (d, nm) [1, 5]	PDI [1, 6]	Size (d, nm) [1, 6]	pKa ([4]; individual IAJD molecules)	PDI [1, 7]	Size (d, nm) [1, 7]	PDI [1, 8]	Size (d, nm) [1, 8]	PDI [1, 9]	Size (d, nm) [1, 9]	pKa [4, 10]	Organs with luminescence: spleen [2]	Organs with luminescence: lung [3]	Organs with luminescence: spleen (weak/strong) ([2]; imaging 6 h after injection)	Organs with luminescence: lung (weak/strong) ([3]; imaging 6 h after injection)	Organs with luminescence: spleen (weak/strong) ([2]; imaging 5 h after injection)	Organs with luminescence: lung (weak/strong) ([3]; imaging 5 h after injection)
CCCCCCCCCCCOc1cc(COC(=O)CCCN2CCN(C)CC2)cc(OCCCCCCCCCC)c1 [IAJD 114, 3-(Decyloxy)-5-(undecyloxy)benzyl 4-(4-methylpiperazin-1-yl)butanoate]	0.351	105 nm	0.351	105 nm	6.43								spleen (strong)	Lung (weak),				
CCCCCCCCCCCOc1cc(COC(=O)CCCN2CCN(CCO)CC2)cc(OCCCCCCCCC)c1 [IAJD 122, 3-(Nonyloxy)-5-(undecyloxy)benzyl 4-(4-(2-hydroxyethyl)piperazin-1-yl)butanoate]	0.337	215 nm	0.337	215 nm	6.66								spleen (strong)	Lung (weak),				
CCCCCCCOC(=O)CCCCOc1cc(COC(=O)CCCN2CCN(C)CC2)cc(OCCCCC(=O)OCCCCCCC)c1 [IAJD 85, Diheptyl 5,5′-((5-(((4-(4-methylpiperazin-1-yl)butanoyl)oxy)methyl)-1,3-phenylene)bis(oxy)) dipentanoate]						0.250	102 nm	0.250	102 nm	0.250	102 nm	6.21					spleen (strong)	Lung (weak),
CCCCCCCCCCCCOc1cc(COC(=O)CCCN2CCN(CCO)CC2)cc(OCCCCCCCCCCC)c1 [IAJD 124, 3-(Dodecyloxy)-5-(undecyloxy)benzyl 4-(4-(2-hydroxyethyl)piperazin-1-yl)butanoate]	0.280	276 nm	0.280	276 nm	6.65								spleen (strong)	Lung (weak),				
CCCCCCCCCCCCCCCCCCOc1cc(COC(=O)CCCN2CCN(C)CC2)cc(OCCCCCCCCCCCCCCC)c1 [IAJD 153, 3-(Octadecyloxy)-5-(pentadecyloxy)benzyl 4-(4-methylpiperazin-1-yl)butanoate]	0.238	232 nm	0.238	232 nm	6.42								spleen (strong)	Lung (weak),				
CCCCCCCCCCCCOc1cc(COC(=O)CCCN2CCN(C)CC2)cc(OCCCCCCCCCCCC)c1OCCCCCCCCCCCC [IAJD 79, 3,4,5-Tris(dodecyloxy)benzyl 4-(4-methylpiperazin-1-yl)butanoate]						0.763	352 nm	0.763	352 nm	0.763	352 nm	6.25			spleen (strong)	Lung (weak),		
CCCCCCCCCCCCCCCOc1cc(COC(=O)CCCN2CCN(C)CC2)cc(OCC(CC)CCCC)c1 (centres unmarked) [IAJD 135, 3-((2-Ethylhexyl)oxy)-5-(pentadecyloxy)benzyl 4-(4-methylpiperazin-1-yl)butanoate]	0.267	92 nm	0.267	92 nm	6.32								spleen (weak)	Lung (weak),				
CCCCCCCCCCCCCCCCCOc1cc(COC(=O)CCCN2CCN(C)CC2)cc(OCCCCCCCCCCC)c1 [IAJD 126, 3-(Heptadecyloxy)-5-(undecyloxy)benzyl 4-(4-methylpiperazin-1-yl)butanoate]	0.247	158 nm	0.247	158 nm	6.52								spleen (strong)	Lung (weak),				

Continued, in another order:

PDI [1, 5]	Size (d, nm) [1, 5]	PDI [1, 6]	Size (d, nm) [1, 6]	pKa ([4]; individual IAJD molecules)	PDI [1, 7]	Size (d, nm) [1, 7]	PDI [1, 8]	Size (d, nm) [1, 8]	PDI [1, 9]	Size (d, nm) [1, 9]	pKa [4, 10]	SMILES	Organs with luminescence: spleen [2]	Organs with luminescence: lung [3]	Organs with luminescence: spleen (weak/strong) ([2]; imaging 6 h after injection)	Organs with luminescence: lung (weak/strong) ([3]; imaging 6 h after injection)	Organs with luminescence: spleen (weak/strong) ([2]; imaging 5 h after injection)	Organs with luminescence: lung (weak/strong) ([3]; imaging 5 h after injection)
					0.486	146 nm	0.486	146 nm	0.486	146 nm	6.49	CCCCC(CC)COc1cc(COC(=O)CCCN2CCN(CCO)CC2)cc(OCC(CC)CCCC)c1 (centres unmarked) [IAJD 87, 3,5-Bis((2-ethylhexyl)oxy)benzyl 4-(4-(2-hydroxyethyl)piperazin-1-yl)butanoate]			spleen (strong)	Lung (weak),		
0.367	255 nm	0.367	255 nm	6.49								CCCCCCCCCCCCCOc1cc(COC(=O)CCCN2CCN(CCO)CC2)cc(OCCCCCCCCCCC)c1 [IAJD 117, 3-(Tridecyloxy)-5-(undecyloxy)benzyl 4-(4-(2-hydroxyethyl)piperazin-1-yl)butanoate]	spleen (strong)	Lung (weak),				
					0.498	188 nm	0.498	188 nm	0.498	188 nm	6.48	CCCCCCCCCCOc1cc(COC(=O)CCCN2CCN(CCO)CC2)cc(OCCCCCCCCCC)c1 [IAJD 91, 3,5-Bis(decyloxy)benzyl 4-(4-(2-hydroxyethyl)piperazin-1-yl)butanoate]			spleen (strong)	Lung (weak),		
					0.482	204 nm	0.482	204 nm	0.482	204 nm	6.46	CCCCC(CC)COc1cc(COC(=O)CCCN2CCN(CCO)CC2)cc(OCC(CC)CCCC)c1OCC(CC)CCCC (centres unmarked) [IAJD 97, 3,4,5-Tris((2-ethylhexyl)oxy)benzyl 4-(4-(2-hydroxyethyl)piperazin-1-yl)butanoate]					spleen (strong)	Lung (weak),
0.301	191 nm	0.301	191 nm	6.33								CCCCCCCCCCCCCOc1cc(COC(=O)CCCN2CCN(CCO)CC2)cc(OCC(CC)CCCC)c1 (centres unmarked) [IAJD 162, 3-((2-Ethylhexyl)oxy)-5-(tridecyloxy)benzyl 4-(4-(2-hydroxyethyl)piperazin-1-yl)butanoate]	spleen (strong)	Lung (weak),				
0.223	344 nm	0.223	344 nm	5.97								CCCCCCCCCCCCCCCCCCOc1cc(COC(=O)CCCN2CCN(CCO)CC2)cc(OCCCCCCCCCCCCC)c1 [IAJD 178, 3-(Octadecyloxy)-5-(tridecyloxy)benzyl 4-(4-(2-hydroxyethyl)piperazin-1-yl)butanoate]	spleen (strong)	Lung (weak),				
0.216	287 nm	0.216	287 nm	6.39								CCCCCCCCCCCCCCCCCOc1cc(COC(=O)CCCN2CCN(C)CC2)cc(OCCCCCCCCCCCCCCC)c1 [IAJD 151, 3-(Heptadecyloxy)-5-(pentadecyloxy)benzyl 4-(4-methylpiperazin-1-yl)butanoate]	spleen (strong)	Lung (weak),				
0.275	159 nm	0.275	159 nm	5.9								CCCCCCCCCCCCCCCCCCOc1cc(COC(=O)CCCN2CCN(C)CC2)cc(OCCCCCCCCCCCCC)c1 [IAJD 177, 3-(Octadecyloxy)-5-(tridecyloxy)benzyl 4-(4-methylpiperazin-1-yl)butanoate]	spleen (strong)	Lung (weak),				
					0.334	214 nm	0.334	214 nm	0.334	214 nm	6.59	CCCCCCCCCCCCCCOc1cc(CNC(=O)CCCN2CCN(C)CC2)cc(OCCCCCCCCCCCCCC)c1 [IAJD 108, N-(3,5-bis(tetradecyloxy)benzyl)-4-(4-methylpiperazin-1-yl)butanamide]			spleen (weak)	Lung (strong),		
